{"source": "ChEMBL document CHEMBL5537177", "about": "“Discovery of Potent Antimalarial Type II Kinase Inhibitors with Selectivity over Human Kinases” (J Med Chem, 2024)", "key": {"[1]": {"assay": "Cmax in mouse at 2 mg/kg, iv", "format": "ADME, organism-based", "settings": "in vivo"}, "[2]": {"assay": "Clearance in mouse at 10 mg/kg, po", "format": "ADME, organism-based", "settings": "in vivo"}, "[3]": {"assay": "AUC (infinity) in mouse at 2 mg/kg, iv", "format": "ADME, organism-based", "settings": "in vivo"}, "Plasmodium falciparum [4]": {"test_system": "Plasmodium falciparum", "assay": "Antimalarial activity against synchronous blood-stage Plasmodium falciparum 3D7 assessed as parasite clearance time at 10 times EC50 treated every 24 hrs for 120 hrs followed by compound washout and subsequent addition of RBCs measured after 21 days by parasite reduction ratio assay", "format": "functional"}, "[5]": {"assay": "Tmax in mouse at 2 mg/kg, iv", "format": "ADME, organism-based", "settings": "in vivo"}, "Plasmodium falciparum [6]": {"test_system": "Plasmodium falciparum", "assay": "Antimalarial activity against synchronized Plasmodium falciparum Dd2 assessed as absence of rightward shift of YOYO-1 peak at 5 times EC50 treated 6 hrs post-invasion measured after 54 hrs post-invasion by flow cytometry", "format": "functional, organism-based", "settings": "time 48.0 hrs"}, "HepG2": {"test_system": "HepG2", "assay": "Cytotoxicity against human HepG2 cells assessed as reduction in cell viability incubated for 48 hrs by MTS assay", "format": "toxicity, cell-based", "settings": "hepg2"}, "[7]": {"assay": "Oral bioavailability in mouse at 10 mg/kg", "format": "ADME, organism-based", "settings": "in vivo"}, "Plasmodium falciparum [8]": {"test_system": "Plasmodium falciparum", "assay": "(§1) Antimalarial activity against artemisinin-resistant synchronized early ring stage Plasmodium falciparum IPC 5202 (MRA-1240) clinical isolate assessed as decrease in parasite survival at ring stage at 10 times EC50 treated for 6 hrs followed by compound removal measured after 72 hrs by geimsa staining based microscopy", "format": "functional, organism-based"}, "Plasmodium falciparum [9]": {"test_system": "Plasmodium falciparum", "assay": "Antimalarial activity against synchronized Plasmodium falciparum Dd2 assessed as parasite growth inhibition at ring stage at 5 times EC50 treated 6 hrs post-invasion measured after 54 hrs post-invasion by Geimsa staining based microscopy", "format": "functional, organism-based", "settings": "time 48.0 hrs"}, "Plasmodium falciparum [10]": {"test_system": "Plasmodium falciparum", "assay": "Antimalarial activity against synchronized Plasmodium falciparum Dd2 assessed as malformation of parasites at 5 times EC50 treated 18 to 30 hrs post-invasion measured after 54 hrs post-invasion by Geimsa staining based microscopy", "format": "functional, organism-based", "settings": "time 24-36 hrs"}, "Plasmodium falciparum [11]": {"test_system": "Plasmodium falciparum", "assay": "Antimalarial activity against synchronous blood-stage Plasmodium falciparum 3D7 assessed as log of parasite reduction ratio at 10 times EC50 treated every 24 hrs for 120 hrs followed by compound washout and subsequent addition of RBCs measured after 21 days", "format": "functional"}, "Plasmodium falciparum [12]": {"test_system": "Plasmodium falciparum", "assay": "Antimalarial activity against ring-stage Plasmodium falciparum 3D7 infected in O+ RBCs assessed as reduction in parasitemia incubated for 72 hrs by SYBR green I dye based analysis", "format": "functional, organism-based, RBC", "settings": "3D7, Erythrocyte"}, "Plasmodium falciparum [13]": {"test_system": "Plasmodium falciparum", "assay": "Parasiticidal activity against asynchronous blood-stage Plasmodium falciparum Dd2 at 10 times EC50 treated for 12 hrs followed by compound washout and measured for 4 days by flow cytometry", "format": "functional, organism-based"}, "[14]": {"assay": "Selectivity index, ratio of EC50 for human MCF7 cells to EC50 for multidrug-resistant Plasmodium falciparum Dd2 at ring stage infected in A+ erythrocytes", "format": "toxicity, cell-based", "settings": "read-out: Ratio EC50"}, "[15]": {"assay": "Cmax in mouse at 10 mg/kg, po", "format": "ADME, organism-based", "settings": "in vivo"}, "Plasmodium falciparum [16]": {"test_system": "Plasmodium falciparum", "assay": "Antimalarial activity against synchronized Plasmodium falciparum Dd2 at 5 times EC50 treated 42 hrs post-invasion measured after 54 hrs post-invasion by YOYO-1 staining based flow cytometry", "format": "functional, organism-based", "settings": "time 12.0 hrs"}, "Plasmodium berghei": {"test_system": "Plasmodium berghei", "assay": "Antimalarial activity against blood-stage Plasmodium berghei sporozoites expressing GFP-Luc SMcon infected in Swiss Webster mouse assessed as reduction in parasitemia at 15 mg/kg, iv pre-infected with mouse RBC containing Plasmodium berghei sporozoites followed by compound administration measured for 2 to 16 days post-infection by SYBR Green I dye based flow cytometry", "format": "functional, organism-based", "settings": "Erythrocyte, time 2-16 day"}, "Plasmodium falciparum [17]": {"test_system": "Plasmodium falciparum", "assay": "Antimalarial activity in blood-stage Plasmodium falciparum Dd2-B2 infected in human O+ erythrocytes assessed as minimum inoculum of resistance at 3 times […] measured for 50 days by blood smear analysis", "format": "functional", "settings": "time 50 day"}, "Plasmodium falciparum [18]": {"test_system": "Plasmodium falciparum", "assay": "Antimalarial activity against Plasmodium falciparum harboring CARL I1139K mutation assessed as reduction in parasitemia incubated for 72 hrs by SYBR green I dye based analysis", "format": "functional, organism-based"}, "Plasmodium falciparum [19]": {"test_system": "Plasmodium falciparum", "assay": "as §1, with “artemisinin-sensitive” for “artemisinin-resistant”, “5188 (MRA-1239)” for “5202 (MRA-1240)”", "format": "functional, organism-based"}, "Plasmodium falciparum [20]": {"test_system": "Plasmodium falciparum", "assay": "Antimalarial activity against patient-derived ring-stage Plasmodium falciparum clinical isolate from Busiu town of Uganda infected in O+ RBCs assessed as reduction in parasitemia incubated for 72 hrs by SYBR green I dye based analysis", "format": "functional, organism-based, RBC", "settings": "Erythrocyte"}, "Plasmodium falciparum [21]": {"test_system": "Plasmodium falciparum", "assay": "Antimalarial activity against synchronized early ring stage Plasmodium falciparum 3D7 (MRA-152) clinical isolate assessed as decrease in parasite survival at ring stage at 10 times EC50 treated for 6 to 48 hrs followed by compound removal measured after 72 hrs by geimsa staining based microscopy", "format": "functional, organism-based"}, "Plasmodium falciparum [22]": {"test_system": "Plasmodium falciparum", "assay": "Antimalarial activity against Plasmodium falciparum harboring PI4K S1320L mutation assessed as reduction in parasitemia incubated for 72 hrs by SYBR green I dye based analysis", "format": "functional, organism-based"}, "Plasmodium falciparum [23]": {"test_system": "Plasmodium falciparum", "assay": "as §1, with “artemisinin/piperaquine-resistant” for “artemisinin-resistant”, “6261 (MRA-1284)” for “5202 (MRA-1240)”, “48” for “6”", "format": "functional, organism-based"}, "Plasmodium falciparum [24]": {"test_system": "Plasmodium falciparum", "assay": "Antimalarial activity in ring-stage Plasmodium falciparum Dd2-B2 infected in human O+ erythrocytes assessed as reduction in parasitemia incubated for 72 hrs by SYBR Green I/ MitoTracker Deep Red dye based flow cytometry", "format": "functional, organism-based", "settings": "Dd2-B2, 72 h"}, "Plasmodium falciparum [25]": {"test_system": "Plasmodium falciparum", "assay": "Antimalarial activity against synchronized early ring stage Plasmodium falciparum 3D7 (MRA-152) clinical isolate assessed as decrease in parasite survival at ring stage at 10 times EC50 treated for 6 hrs followed by compound removal measured after 72 hrs by geimsa staining based microscopy", "format": "functional, organism-based"}, "Plasmodium falciparum [26]": {"test_system": "Plasmodium falciparum", "assay": "microbe, parasite or virus in culture", "settings": "Dd2, 72 h", "description": "Antimalarial activity against wild-type Plasmodium falciparum Dd2 assessed as reduction in parasitemia incubated for 72 hrs by SYBR green I dye based analysis"}}, "note": "Activity calls are given as the source filed them. No cut-off for these calls is given here."}
{"smiles": "CCN1CCN(Cc2ccc(NC(=O)c3cc(Cl)cc(NC(=O)c4cncc(-c5cccs5)c4)c3)cc2C(F)(F)F)CC1", "values": [{"measurement": "Cmax", "setting": "[1]", "value": 11100, "unit": "ng/mL"}, {"measurement": "CL/F", "setting": "[2]", "value": 109, "unit": "mL/min/kg"}, {"measurement": "AUC(0-inf)", "setting": "[3]", "value": 8160, "unit": "ng·h/mL"}, {"measurement": "T99.9%", "setting": "Plasmodium falciparum [4]", "value": "< 32", "unit": "h"}, {"measurement": "Tmax", "setting": "[5]", "value": 4.8, "unit": "min"}, {"measurement": "Activity", "setting": "Plasmodium falciparum [6]", "value": "Active"}, {"measurement": "EC50", "setting": "HepG2", "value": 2590, "unit": "nM"}, {"measurement": "bioavailability", "setting": "[7]", "value": 4.8, "unit": "%"}, {"measurement": "Activity", "setting": "Plasmodium falciparum [8]", "value": "inactive"}, {"measurement": "inhibition", "setting": "Plasmodium falciparum [9]", "value": "Active"}, {"measurement": "Activity", "setting": "Plasmodium falciparum [10]", "value": "Active"}, {"measurement": "log(activity)", "setting": "Plasmodium falciparum [11]", "value": 3.75}, {"measurement": "EC50", "setting": "Plasmodium falciparum [12]", "value": 10.2, "unit": "nM"}, {"measurement": "Activity", "setting": "Plasmodium falciparum [13]", "value": "Active"}, {"measurement": "selectivity ratio", "setting": "[14]", "value": 61}, {"measurement": "Cmax", "setting": "[15]", "value": 153, "unit": "ng/mL"}, {"measurement": "Activity", "setting": "Plasmodium falciparum [16]", "value": "Active"}, {"measurement": "Activity", "setting": "Plasmodium berghei", "value": "Active"}, {"measurement": "Activity", "setting": "Plasmodium falciparum [17]", "value": ">7"}, {"measurement": "EC50", "setting": "Plasmodium falciparum [18]", "value": 65.8, "unit": "nM"}, {"measurement": "Activity", "setting": "Plasmodium falciparum [19]", "value": "inactive"}, {"measurement": "EC50", "setting": "Plasmodium falciparum [20]", "value": 9.2, "unit": "nM"}, {"measurement": "EC50", "setting": "Plasmodium falciparum [21]", "value": 61.1, "unit": "nM"}, {"measurement": "EC50", "setting": "Plasmodium falciparum [22]", "value": 59.2, "unit": "nM"}, {"measurement": "Activity", "setting": "Plasmodium falciparum [23]", "value": "Active"}, {"measurement": "EC50", "setting": "Plasmodium falciparum [24]", "value": 40.6, "unit": "nM"}, {"measurement": "Activity", "setting": "Plasmodium falciparum [25]", "value": "inactive"}, {"measurement": "EC50", "setting": "Plasmodium falciparum [26]", "value": 51.2, "unit": "nM"}]}
